According to ChEMBL document CHEMBL1629570, “Posaconazole mono- or combination therapy for treatment of murine zygomycosis” (Antimicrob Agents Chemother, 2009):
Calls of active or inactive are those of the source.

Columns and labels:
Type in all cases: functional, organism-based
[1] = test system: Rhizopus arrhizus; assay: Antifungal activity against Rhizopus oryzae 99-880 infected in diabetic ketoacidotic BALB/c mouse assessed as improved time to death at 60 mg/kg/day, po administered 24 hrs post infection for 4 days
[2] = test system: Rhizopus arrhizus; assay: Antifungal activity against Rhizopus oryzae 99-880 infected in neutropenic mouse assessed as reduction of fungal burden in kidneys at 60 mg/kg/day, po administered 8 hrs post infection for 3 days; conditions: Kidney
[3] = test system: Rhizopus arrhizus; assay: Antifungal activity against Rhizopus oryzae 99-880 infected in diabetic ketoacidotic mouse assessed as mouse survival at 30 mg/kg/day, po administered 24 hrs post infection for 4 days
[4] = test system: Rhizopus arrhizus; assay: Antifungal activity against Rhizopus oryzae 99-880 infected in diabetic ketoacidotic mouse assessed as reduction of fungal burden in brain at 60 mg/kg/day, po administered 8 hrs post infection for 3 days
[5] = test system: Rhizopus arrhizus; assay: Antifungal activity against Rhizopus oryzae 99-880 infected in neutropenic BALB/c mouse assessed as improved time to death at 60 mg/kg/day, po administered 24 hrs post infection for 4 days
[6] = test system: Rhizopus arrhizus; assay: Antifungal activity against Rhizopus oryzae 99-880 infected in diabetic ketoacidotic mouse assessed as reduction of fungal burden in kidneys at 60 mg/kg/day, po administered 8 hrs post infection for 3 days; conditions: Kidney
[7] = test system: Rhizopus arrhizus; assay: Antifungal activity against Rhizopus oryzae 99-880 infected in neutropenic mouse assessed as reduction of fungal burden in brain at 60 mg/kg/day, po administered 8 hrs post infection for 3 days
[8] = test system: Rhizopus arrhizus; assay: Antifungal activity against Rhizopus oryzae 99-880 infected in diabetic ketoacidotic BALB/c mouse assessed as improved time to death at 10 mg/kg/day, po administered 24 hrs post infection for 4 days
[9] = test system: Rhizopus arrhizus; assay: Antifungal activity against Rhizopus oryzae 99-880 infected in diabetic ketoacidotic mouse assessed as mouse survival at 10 mg/kg/day, po administered 24 hrs post infection for 4 days
[10] = test system: Rhizopus arrhizus; assay: Antifungal activity against Rhizopus oryzae 99-880 infected in diabetic ketoacidotic mouse assessed as mouse survival at 60 mg/kg/day, po administered 24 hrs post infection for 4 days
[11] = test system: Rhizopus arrhizus; assay: Antifungal activity against Rhizopus oryzae 99-880 infected in diabetic ketoacidotic BALB/c mouse assessed as improved time to death at 30 mg/kg/day, po administered 24 hrs post infection for 4 days

Measured: Activity

CC[C@@H]([C@H](C)O)n1ncn(-c2ccc(N3CCN(c4ccc(OC[C@@H]5CO[C@@](Cn6cncn6)(c6ccc(F)cc6F)C5)cc4)CC3)cc2)c1=O
inactive: [2] | [3] | [4] | [5] | [6] | [7] | [8] | [9] | [10] | [11]
active: [1]
